Laboratory results as given in patent publication US20250290117A1, “MOLECULAR PHENOTYPIC ANTIMICROBIAL SUSCEPTIBILITY TESTING” (priority 2024, published 2025).

System: E. coli
Test: Molecular phenotypic antimicrobial susceptibility test with direct PCR (no extraction DNA purification step)
Assay type: cell-based, Escherichia coli
Conditions: specimen with <10,000 cells/mL, direct PCR after 16 hours of incubation
Method: Detection of Molecular Phenotypic Antimicrobial Susceptibility. Disclosed herein are the methods for the detection of phenotypic antimicrobial susceptibility via molecular methods. The present invention describes how a specimen 100 with a known microbial load is incubated and then exposed to a panel of antimicrobial agents to determine sensitivity (prevention of growth) or resistance (allowance of growth) to the specific antimicrobial agents tested utilizing molecular methods.
Sample Collection. Specimens 100 are collected from patients using sterile collection processes that are employed in routine clinical care. Specimens are transported to the testing facility in boric acid preservative. Specimens 100 are subsequently divided into a first sample 104 and a second sample 108.
Preparation of the Specimens for Testing. The specimens 100 are put through a pathogen identification process using PCR technology (e.g., using the first sample 104). The process for pathogen isolation includes steps of harvesting the pathogen (e.g., via centrifugation), isolating pathogen DNA via a DNA isolation and/or purification kit, and performing PCR on the pathogen DNA via PCR components (e.g., primers, enzymes, buffers) as would be known to the skilled artisan. Simultaneously, an additional aliquot of the same specimen (e.g., the second sample 108) is placed with liquid culture media and incubated for 4-6 hours. This aliquot is used for antimicrobial susceptibility testing if indicated based on the pathogen detection results. After pathogen identification is completed and if more than 10,000 cells/mL of bacteria (e.g., eligible bacteria) are detected in the source specimen, the second sample 108 then enters the antimicrobial susceptibility phase of testing. Specimens 100 with lower pathogen loads could also be utilized in the antibiotic susceptibility phase of testing with or without a longer incubation period.
Preparation of Antimicrobial Susceptibility Testing Plates. Antimicrobial solutions are prepared at known concentrations. The specific antimicrobials and their concentrations are selected based on the pathogen of interest and the described antimicrobial resistance breakpoints for that specimen pathogen and antimicrobial combination. These antimicrobials have been selected based on those commonly utilized by healthcare providers in routine clinical care for the specific type of suspected infection. The number and types of antimicrobials utilized can be customized based on the infection source, pathogen detected, patient-specific factors such as allergies or other health conditions (e.g., chronic kidney disease or concurrent medication use), or healthcare provider preferences such as antimicrobial availability or cost.
The antimicrobial solutions are prepared in liquid culture media (such as Muller Hinton Broth) to achieve the desired antimicrobial concentration and are then stored at −80° C. until use. For a given specimen, each antimicrobial is tested at a single or multiple antimicrobial concentration(s) which is its established breakpoints for sensitivity. The antimicrobial solutions are prepared and plated out for each specific pathogen. This allows ease of use on the day of testing after defrosting the plate 112. Table 1, which illustrates the results of molecular phenotypic antimicrobial susceptibility testing when more than one organism is present in the source specimen, provides an example of an antimicrobial plate 112 prepared for this purpose. Of note, control wells containing only culture media are present on all plates 112. This allows for evaluation of pathogen load when no antimicrobial is present.
Specimen Exposure to Antimicrobial Agents. The 1 mL aliquot of the specimen 100 previously mixed with culture media and incubated is obtained. Using optical density measurements as a guide, the specimen 100 is diluted to 0.5 McFarland. […]

`C[C@H]1c2cccc(O)c2C(=O)C2=C(O)[C@]3(O)C(=O)C(C(N)=O)=C(O)[C@@H](N(C)C)[C@@H]3[C@@H](O)[C@@H]21` [Doxycycline] was tested, and the “Molecular Antimicrobial Susceptibility Result” value (E. coli #1 - WDCM 00090 - 6.2×E3) was “Sensitive (Antimicrobial wells with pathogen load detected below the control wells (typically >2 cycle thresholds later) may be reported as Sensitive)”, the “Ct at Sensitive Breakpoint” value (E. coli #1 - WDCM 00090 - 6.2×E3, Ct at control 13.787) was 25.83 and the “Molecular Antimicrobial Susceptibility Result” value (E. coli #2 - WDCM 00090 - 6.2×E3) was “Sensitive (Antimicrobial wells with pathogen load detected below the control wells (typically >2 cycle thresholds later) may be reported as Sensitive)”. For the same molecule, the “Ct at Sensitive Breakpoint” value (E. coli #2 - WDCM 00090 - 6.2×E3, Ct at control 13.46) was 27.02.
